What was measured:
[1] = system: spike protein of Omicron variant; type: binding, SARS-CoV2 Omicron variant
[2] = system: SARS-CoV-2 variant Omicron Spike protein pseudotyped lentiviral particles; experiment: microbe, parasite or virus in culture; type: cell-based, SARS-CoV-2 Omicron variant; conditions: Severe acute respiratory syndrome coronavirus 2, HEK293, read-out: EC50, inhibition of infection of Omicron variant
[3] = system: spike protein of Delta variant; type: binding, SARS-CoV2 Delta variant
[4] = system: SARS-CoV-2 variant Delta Spike protein pseudotyped lentiviral particles; experiment: microbe, parasite or virus in culture; type: cell-based, SARS-CoV-2 Delta variant; conditions: Severe acute respiratory syndrome coronavirus 2, HEK293, read-out: EC50, inhibition of infection of Delta variant

O=C1Nc2ccccc2/C1=C\c1ccc(-c2cc(C(F)(F)F)cc(C(F)(F)F)c2)o1 [CD04872SC, 3-({5-[3,5-di(trifluoromethyl)phenyl]-2-furyl}methylidene)indolin-2-one]
thermal stability change in presence of compound [1]: same stabilizing tendency
EC50 [2]: 308 µM
thermal stability change in presence of compound [3]: same stabilizing tendency
EC50 [4]: 152 µM

From patent US12569467B2, “Small molecules that treat or prevent viral infections” (priority 2022, dated 2026)
